Laboratory results taken from US20160313301A1, “METHOD FOR PREDICTING ANTITUMOR EFFICACY OF HSP90 INHIBITOR IN CANCER TREATMENT” (NIPPON KAYAKU KABUSHIKI KAISHA, priority 2013, published 2016).

Assays:
Format in all cases: in vivo
[1] = test system: human breast cancer cells MC-19-JCK; test: Anti-tumor test in mice transplanted subcutaneously with tumor (MC-19-JCK); conditions: MC-19-JCK s.c. in mice; administered once at 125 mg/kg
Method: (§1) Human ovarian cancer cell lines OC-10-JCK, OC-11-JCK, and TOGY-18, and a human breast cancer cell line MC-19-JCK were obtained from Central Institute for Experimental Animals. Cryopreserved tumor pieces were thawed, and then OC-10-JCK, OC-11-JCK, and MC-19-JCK were transplanted subcutaneously to SCID mice, while TOGY-18 was transplanted subcutaneously to nude mice. After the tumors were grown, the tumors were removed and cut into tumor pieces. The tumor pieces were transplanted subcutaneously to SCID mice or nude mice with trocars. The tumors were maintained by repeated transplantation in the same manner as described above to prepare tumors to be transplanted. Human ovarian cancer cell lines ES-2, SK-OV-3, OV-90, and TOV-21G, and a human lung cancer cell line NCI-H1975 were obtained from American Type Culture Collection (ATCC). The SK-OV-3 and NCI-H1975 cell lines were grown in recommended culture media, of which about 1×10^7 cells were suspended into HBSS and then injected subcutaneously to SCID mice. After the cells formed tumors, the tumors were removed and cut into tumor pieces. The tumor pieces were transplanted subcutaneously to SCID mice with trocars. The tumors were maintained by repeated transplantation in the same manner as described above to prepare tumors to be transplanted. […]

[2] = test system: human breast cancer cells JIMT-1; test: Anti-tumor test in mice transplanted subcutaneously with tumor (JIMT-1); conditions: JIMT-1 s.c. in mice; 125 mg/kg tail vein three times at 7 day intervals
Method: as §1

[3] = test system: human ovarian cancer cells OC-11-JCK/PTX; test: Anti-tumor test in mice transplanted subcutaneously with tumor (OC-11-JCK/PTX); conditions: OC-11-JCK/PTX s.c. in mice; 125 mg/kg tail vein three times at 7 day intervals
Method: Human ovarian cancer cell lines OC-10-JCK, OC-11-JCK, and TOGY-18, and a human breast cancer cell line MC-19-JCK were obtained from Central Institute for Experimental Animals. Cryopreserved tumor pieces were thawed, and then OC-10-JCK, OC-11-JCK, and MC-19-JCK were transplanted subcutaneously to SCID mice, while TOGY-18 was transplanted subcutaneously to nude mice. After the tumors were grown, the tumors were removed and cut into tumor pieces. The tumor pieces were transplanted subcutaneously to SCID mice or nude mice with trocars. The tumors were maintained by repeated transplantation in the same manner as described above to prepare tumors to be transplanted. Human ovarian cancer cell lines ES-2, SK-OV-3, OV-90, and TOV-21G, and a human lung cancer cell line NCI-H1975 were obtained from American Type Culture Collection (ATCC). The SK-OV-3 and NCI-H1975 cell lines were grown in recommended culture media, of which about 1×10^7 cells were suspended into HBSS and then injected subcutaneously to SCID mice. After the cells formed tumors, the tumors were removed and cut into tumor pieces. The tumor pieces were transplanted subcutaneously to SCID mice with trocars. The tumors were maintained by repeated transplantation in the same manner as described above to prepare tumors to be transplanted. The OV-90 cell line was grown in a recommended culture medium, of which about 1×10^6 cells were suspended into HBSS and then injected subcutaneously to SCID mice. After the cells formed a tumor, the tumor was subjected to an anti-tumor test. The TOV-21G cell line was grown in a recommended culture medium, of which about 1×10^7 cells were suspended into HBSS and then injected subcutaneously to SCID mice. After the cells formed a tumor, the tumor was subjected to the anti-tumor test. The ES-2 cell line was grown in a recommended culture medium, suspended into HBSS, and then injected subcutaneously to nude mice. After the cells formed a tumor, the tumor was removed and cut into tumor pieces. The tumor pieces were transplanted subcutaneously to nude mice with a trocar. […]

[4] = test system: human lung cancer cells NCI-H1975; test: Anti-tumor test in mice transplanted subcutaneously with tumor (NCI-H1975); conditions: NCI-H1975 s.c. in mice; 150 mg/kg tail vein three times at 7 day intervals
Method: as §1

[5] = test system: human ovarian cancer cells TOGY-18; test: Anti-tumor test in mice transplanted subcutaneously with tumor (TOGY-18); conditions: TOGY-18 s.c. in mice; 125 mg/kg tail vein three times at 7 day intervals
Method: as §1

CC(C)c1cc(-c2n[nH]c(=O)n2-c2ccc3c(ccn3C)c2)c(O)cc1O [Ganetespib, reference compound]
T/C % (lowest value from the beginning to the 21st day of administration) [1]: 19.8% | T/C % (lowest value from the beginning to the 21st day of administration) [2]: 56.6% | T/C % (lowest value from the beginning to the 21st day of administration) [3]: 84.0% | T/C % (lowest value from the beginning to the 21st day of administration) [4]: 44.0% | T/C % (lowest value from the beginning to the 21st day of administration) [5]: 67.7%
